The NIST ThermoML archive (doi:10.1016/j.jct.2019.01.021)
± gives the expanded uncertainty stated by the source.

Experiment: Molar enthalpy of transition or fusion

Molar enthalpy of transition or fusion (Crystal 1, DSC): 3.87 ± 0.191 kcal/mol
Molar enthalpy of transition or fusion (Crystal 2, Adiabatic calorimetry): 0.00287 ± 0.00191 kcal/mol
Structure (SMILES): N.NS(=O)(=O)O [ammonium sulfamate]
